Key:
MONO-MAC-6 = test: Antiproliferative activity against human MONO-MAC-6 cells; type: functional, cell-based
[1] = target: T1, Alpha-ketoglutarate-dependent dioxygenase FTO (Homo sapiens, UniProt Q9C0B1); test: Inhibition of FTO (unknown origin) mediated m6A methylation by HPLC analysis
[2] = target: T1, Alpha-ketoglutarate-dependent dioxygenase FTO; test: Inhibition of full length human FTO expressed in Escherichia coli BL21(DE3) rosetta by HPLC analysis
[3] = target: T1, Alpha-ketoglutarate-dependent dioxygenase FTO; test: Displacement of dm6A-containing ssDNA from truncated N-terminal his-tagged human FTO (31 residues) mediated demethylation activity expressed in Escherichia coli BL21(DE3) using ssDNA (5'-ATTGTCA(dm6A)CAGCAGA-FAM-3') as substrate by fluorescence polarization assay
[4] = target: T1, Alpha-ketoglutarate-dependent dioxygenase FTO
Description: Inhibition of FTO (unknown origin) (31 to 505 residues) by LC/MS analysis

T1 sequence (Q9C0B1 whole entry): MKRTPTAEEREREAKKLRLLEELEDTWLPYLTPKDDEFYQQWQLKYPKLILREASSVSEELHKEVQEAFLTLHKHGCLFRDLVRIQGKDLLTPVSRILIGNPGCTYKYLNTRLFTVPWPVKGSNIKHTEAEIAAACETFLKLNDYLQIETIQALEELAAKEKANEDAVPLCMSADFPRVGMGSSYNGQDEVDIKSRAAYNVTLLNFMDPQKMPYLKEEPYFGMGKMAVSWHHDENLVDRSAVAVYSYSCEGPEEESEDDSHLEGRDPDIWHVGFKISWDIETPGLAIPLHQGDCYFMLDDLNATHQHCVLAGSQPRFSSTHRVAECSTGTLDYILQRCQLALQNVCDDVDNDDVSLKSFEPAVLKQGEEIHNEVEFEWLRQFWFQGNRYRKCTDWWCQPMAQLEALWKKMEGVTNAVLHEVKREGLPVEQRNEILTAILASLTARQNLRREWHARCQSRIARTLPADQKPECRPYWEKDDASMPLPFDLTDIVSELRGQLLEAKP

**Q.** For Cc1noc(C)c1-c1cc(Cl)c(Nc2ccccc2C(=O)NO)c(Cl)c1, which IC50 (MONO-MAC-6) is on record?
**A.** 800 nM

**Q.** What about the IC50 [1] of the same compound?
**A.** 2600 nM

**Q.** For O=C(O)c1ccnc(C(=O)NS(=O)(=O)c2ccc(C(F)(F)F)cc2)c1, which IC50 [2] is on record?
**A.** 2600 nM

**Q.** With Cc1ccc(Cl)c(Nc2ccccc2C(=O)O)c1Cl [MECLOFENAMIC ACID] as the compound, how does the IC50 [3] read?
**A.** 17400 nM

**Q.** For C[C@@H]1C[C@H]2O[C@@H]2/C=C\C=C\C(=O)Cc2c(Cl)c(O)cc(O)c2C(=O)O1 [RADICICOL], which IC50 [4] is on record?
**A.** 16000 nM
